Data taken from publication PMC6981392, “Characterization of a Maltase from an Early-Diverged Non-Conventional Yeast Blastobotrys adeninivorans” (International Journal of Molecular Sciences, 2019).
“Also recorded” adds a separate entry of the source. Where two headings read alike, the source gives them in different places.

How the values were obtained:
[1] = tested on: extracellular α-glucosidase of Schizosaccharomyces pombe; details: on maltose; cited from earlier work
BaAG2 [2] = molecular target: T1, BaAG2 (Blastobotrys adeninivorans, UniProt Z9CO09ION3); test: Substrate specificity of BaAG2 on 100 mM sugars and 1 mM pNPG; assay type: biochemical; details: 100 mM sugars, pH 6.5, 30 °C
T1 sequence (Z9CO09ION3 1-580): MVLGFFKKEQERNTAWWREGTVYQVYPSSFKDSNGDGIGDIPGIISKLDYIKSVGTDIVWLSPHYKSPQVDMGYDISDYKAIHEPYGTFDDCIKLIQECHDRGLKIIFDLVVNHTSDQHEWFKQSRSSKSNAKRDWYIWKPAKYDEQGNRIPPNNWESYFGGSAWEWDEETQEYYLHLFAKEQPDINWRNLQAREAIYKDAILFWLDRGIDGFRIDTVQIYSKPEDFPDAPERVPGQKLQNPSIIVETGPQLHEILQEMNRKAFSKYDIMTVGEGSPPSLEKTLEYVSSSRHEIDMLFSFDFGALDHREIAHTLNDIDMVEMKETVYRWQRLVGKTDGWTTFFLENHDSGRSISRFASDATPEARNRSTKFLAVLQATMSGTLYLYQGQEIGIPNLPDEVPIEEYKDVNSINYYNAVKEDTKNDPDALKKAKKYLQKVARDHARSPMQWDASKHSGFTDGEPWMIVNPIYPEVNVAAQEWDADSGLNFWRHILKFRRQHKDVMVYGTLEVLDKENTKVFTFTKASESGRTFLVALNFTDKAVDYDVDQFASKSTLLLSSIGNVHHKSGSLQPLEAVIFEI
Method: Hydrolysis of pNPG was assayed as in [16, 40] according to the release of p-nitrophenol. 100 mM K-phosphate buffer (pH 6.5) was used and reactions were conducted at 30 °C if not stated otherwise. The purified enzyme was unstable if diluted therefore 5 g/L bovine serum albumin (BSA) was added to the dilution buffer as a protein stabilizer to retain its full catalytic activity. […] The content of the released glucose was determined spectrophotometrically as in [16, 47]. The activities (µmoles of glucose released per minute per mg of protein; U/mg) were calculated from initial velocities of the reaction. For kinetic analysis, initial rates of p-nitrophenol or glucose release from substrates were measured at four to seven concentrations ranging from 0.1–3.0 mM for pNPG and 2.5–250 mM for di- and trisaccharides. At least three independent measurements for each substrate and concentration were made. BaAG2 content in reaction mixtures ranged from 0.02 to 3.5 µg/mL. […] The theoretical Mw value of 67,901 Da for the kcat calculation was computed in ExPASy Proteomics Server (http://expasy.org).

[3] = tested on: α-glucosidase of A. niger; set-up: method as in doi:10.1271/bbb1961.55.2327; details: on maltose; cited from earlier work
[4] = tested on: B. adeninivorans CBS 8244; set-up: method as in earlier work; details: CBS-KNAW culture collection; cited from earlier work
BaAG2 [5] = molecular target: T1, BaAG2; test: Inhibition of pNPG hydrolysis by BaAG2
Method: (§1) 100 mM K-phosphate buffer (pH 6.5) was used and reactions were conducted at 30 °C if not stated otherwise. The purified enzyme was unstable if diluted therefore 5 g/L bovine serum albumin (BSA) was added to the dilution buffer as a protein stabilizer to retain its full catalytic activity. […] The content of the released glucose was determined spectrophotometrically as in [16, 47]. The activities (µmoles of glucose released per minute per mg of protein; U/mg) were calculated from initial velocities of the reaction. […] At least three independent measurements for each substrate and concentration were made.
The Ki values were calculated using enzyme kinetics module of the SigmaPlot (Systat Software, San Jose, CA, USA).

BaAG2 [6] = molecular target: T1, BaAG2; test: Differential scanning fluorimetry (DSF) thermostability of BaAG2 with ligands; assay type: binding; details: 2 µM BaAG2, unliganded Tm 51 °C; 100 mM fructose, 50 mM palatinose, 50 mM glucose, 5 mM Tris, 5 mM acarbose; HEPES pH 7.0
Method: The reaction was conducted in 50 mM 4-(2-hydroxyethyl)-1-piperazineethanesulfonic acid) (HEPES) buffer (pH 7.0) with 150 mM NaCl. […] At least two independent experiments were performed with two technical replicates.

B. adeninivorans = test: Growth of B. adeninivorans on sugars (OD 600 nm); assay type: cell-based, Blastobotrys adeninivorans; details: YNB medium, 2 g/L sugar, 24 h, 37 °C
Method: Blastobotrys (Arxula) adeninivorans LS3 (CBS 8244) was kindly provided by Assoc. Prof. V. Passoth (SLU, Uppsala, Sweden). The yeast strain was grown on solid YPD medium (20 g/L peptone, 20 g/L glucose, 10 g/L yeast extract, 20 g/L agar) at 30 °C 24 h for harvesting the cells for genomic DNA extraction. E. coli DH5α (Thermo Fisher Scientific, Waltham, MA, USA) was used for DNA cloning and plasmid production. E. coli BL21 (DE3) was used for heterologous expression of BaAG2. The ability of B. adeninivorans to grow on sugars was assayed as in [12]. Yeast cells grown overnight on BD Difco YNB medium (Thermo Fisher Scientific, Waltham, MA, USA) without amino acids containing 2 g/L glucose were used as inoculum. […] The cells were incubated on Greiner 96-well flat-bottom transparent polystyrene microplates (Greiner Bio-One, Frickenhausen, Germany) in 200 µl under agitation for 24 h at 37 °C. Optical density of the culture at 600 nm was measured against inoculated medium without sugar at the beginning and end of the experiment using an Infinite M200 PRO microplate reader (Tecan Group Ltd., Männedorf, Switzerland) equipped with Tecan i-control v. 1.7 software from the same provider. Two independent experiments with two parallel measurements were conducted.

BaAG2 [7] = molecular target: T1, BaAG2; test: Kinetics of hydrolysis of pNPG and sugars by BaAG2; details: for Vmax ± SD / kcat ± SD / Km: substrate hydrolysis, pH 6.5, 30 °C; for kcat ± SD: calculated from Vmax with Mw 67,901 Da; for Km: read-out: Km ± SD
Method: as §1

BaAG2 [8] = molecular target: T1, BaAG2; test: TLC assay of panose hydrolysis by BaAG2; details: 50 mM panose, extended (22 h) reaction time
Method: The reaction samples were analyzed using TLC.
To visualize hydrolysis and polymerization products, the TLC analysis was conducted as in [16] on Silica Gel 60 F254 plates with concentrating zone (Merck, Darmstadt, Germany). 0.5 µl of the stopped reaction mixture were spotted onto the plate and sugars were separated with two runs in chloroform:acetic acid:water (6:7:1, v:v:v) [67]. For the analysis of products of polysaccharide degradation, 3 µl of the reaction mixtures were spotted. Sugars were visualized by immersion of the plates in aniline-diphenylamine reagent and subsequent heating of the dried plates at 100 °C [68].

BaAG2 [9] = molecular target: T1, BaAG2; test: Degradation of glucose polymers by BaAG2 (glucose release, TLC); assay type: biochemical; details: polysaccharide 5 g/L, 20 µg/mL enzyme
Method: Polysaccharide concentration in the reaction mixture was 5 g/L, and 20 µg/mL of the enzyme was used. At desired time points (2 h, 24 h, 74/96 h) aliquots were withdrawn and heated to stop the reaction. A negative control containing 20 µg/mL BSA instead of the enzyme was incubated alongside. Concentration of released glucose was measured as described above and 3 µl of the samples were analysed on TLC. Maltase from S. cerevisiae (ScMAL62), amyloglycosidase from Aspergillus niger (Sigma-Aldrich, Merck, Darmstadt, Germany) and α-amylase from Aspergillus oryzae (Sigma-Aldrich, Merck, Darmstadt, Germany) were reacted with tested glucose polymers for comparison.

## OC[C@H]1O[C@H](O[C@H]2[C@H](O)[C@@H](O)C(O)O[C@@H]2CO)[C@H](O)[C@@H](O)[C@@H]1O (mixture of isomers) [Maltose]
[1]
  kcat: 709 s⁻¹
BaAG2 [2]
  hydrolysis by BaAG2: could hydrolyze
[3]
  Catalytic constant (kcat): 144 s⁻¹
[4]
  assimilation by B. adeninivorans CBS 8244: assimilates

## C[C@H]1O[C@H](O[C@H]2[C@H](O)[C@@H](O)[C@@H](O[C@H]3[C@H](O)[C@@H](O)C(O)O[C@@H]3CO)O[C@@H]2CO)[C@H](O)[C@@H](O)[C@@H]1N[C@H]1C=C(CO)[C@@H](O)[C@H](O)[C@H]1O (stereo partly shown) [Acarbose, reference compound]
BaAG2 [5]; read-out: Ki ± SD, values marked * are given in µM, pH 6.5, 30 °C
  Ki: 0.83 ± 0.01 µM
BaAG2 [5]; read-out: Ki ± SD, values marked * are given in µM, pH 6.5, 30 °C, listed as acarbose
  Ki: 0.8 µM

## O=C(CO)[C@@H](O)[C@H](O)[C@H](O)CO [Fructose]
BaAG2 [5]
  Inhibition Mode: Competitive

## OC[C@H]1OC(O)[C@H](O)[C@@H](O)[C@@H]1O (stereo partly shown) [Glucose]
BaAG2 [5]
  Inhibition Mode: Competitive
BaAG2 [6]
  increase of Tm in the presence of a ligand: 4.4 °C

## OC[C@H]1O[C@H](OC[C@H]2OC(O)[C@H](O)[C@@H](O)[C@@H]2O)[C@H](O)[C@@H](O)[C@@H]1O (stereo partly shown) [Isomaltose]
BaAG2 [5]
  Inhibition Mode: Competitive
B. adeninivorans
  growth of B. adeninivorans on sugar: new growth substrates
BaAG2 [2]
  hydrolysis by BaAG2: not hydrolyzed
BaAG2 [2]; listed as isomaltose
  hydrolysis by BaAG2: could not hydrolyze

## OC[C@H]1O[C@@](CO)(O[C@H]2O[C@H](CO)[C@@H](O)[C@H](O)[C@H]2O)[C@@H](O[C@H]2O[C@H](CO)[C@@H](O)[C@H](O)[C@H]2O)[C@@H]1O [Melezitose]
BaAG2 [2]
  hydrolysis by BaAG2: could hydrolyze
[4]
  assimilation by B. adeninivorans CBS 8244: assimilates
BaAG2 [7]
  Vmax ± SD: 231.0 ± 31.8 µmol/mg/min
  kcat ± SD: 261.4 ± 36.1 s⁻¹

## OC[C@H]1O[C@H](OC[C@H]2OC(O)(CO)[C@@H](O)[C@@H]2O)[C@H](O)[C@@H](O)[C@@H]1O (stereo partly shown) [Palatinose]
B. adeninivorans
  growth of B. adeninivorans on sugar: new growth substrates
BaAG2 [2]
  hydrolysis by BaAG2: not hydrolyzed; also recorded: could not hydrolyze

## OC[C@H]1O[C@@](CO)(O[C@H]2O[C@H](CO)[C@@H](O)[C@H](O)[C@H]2O)[C@@H](O)[C@@H]1O [Sucrose, α-D-Glc-(1→2)-β-D-Fru]
BaAG2 [2]
  hydrolysis by BaAG2: could hydrolyze
[4]
  assimilation by B. adeninivorans CBS 8244: assimilates

## O=C(CO)[C@@H](O[C@H]1O[C@H](CO)[C@@H](O)[C@H](O)[C@H]1O)[C@H](O)[C@H](O)CO [Turanose]
B. adeninivorans
  growth of B. adeninivorans on sugar: new growth substrates
BaAG2 [2]
  hydrolysis by BaAG2: could hydrolyze
BaAG2 [7]
  Km: 45.2 ± 6 mM
  Vmax ± SD: 190.1 ± 10.4 µmol/mg/min
  kcat ± SD: 215.1 ± 11.9 s⁻¹

## O=[N+]([O-])c1ccc(O[C@@H]2O[C@H](CO)[C@H](O)[C@H](O)[C@H]2O)cc1 [pNPG, p-nitrophenyl-α-D-glucopyranoside, reference compound]
BaAG2 [2]
  hydrolysis by BaAG2: could hydrolyze
BaAG2 [7]
  Vmax: over 750 U/mg
  Km: 0.76 ± 0.03 mM
  Vmax ± SD: 751.3 ± 14.5 µmol/mg/min
  kcat ± SD: 850.2 ± 16.4 s⁻¹

## OC[C@H]1O[C@H](OC[C@H]2O[C@H](O[C@H]3[C@H](O)[C@@H](O)C(O)O[C@@H]3CO)[C@H](O)[C@@H](O)[C@@H]2O)[C@H](O)[C@@H](O)[C@@H]1O (stereo partly drawn) [panose, α-D-Glc-(1→6)-α-D-Glc-(1→4)-D-Glc]
BaAG2 [8]
  hydrolysis by BaAG2: not hydrolyzed

## OC[C@H]1O[C@H](O[C@H]2O[C@H](CO)[C@@H](O)[C@H](O)[C@H]2O)[C@H](O)[C@@H](O)[C@@H]1O [trehalose]
[4]
  assimilation by B. adeninivorans CBS 8244: assimilates

## CO[C@H]1O[C@H](CO)[C@@H](O)[C@H](O)[C@H]1O [α-MG, α-methylglucoside, reference compound]
BaAG2 [5]
  Inhibition Mode: Competitive
BaAG2 [2]
  hydrolysis by BaAG2: could not hydrolyze
BaAG2 [2]; listed as α-methylglucoside
  hydrolysis by BaAG2: not hydrolyzed
[4]
  assimilation by B. adeninivorans CBS 8244: assimilates

## Maltotriose
B. adeninivorans
  growth of B. adeninivorans on sugar: new growth substrates
BaAG2 [2]
  hydrolysis by BaAG2: could hydrolyze

## Maltulose
B. adeninivorans
  growth of B. adeninivorans on sugar: new growth substrates
BaAG2 [2]
  hydrolysis by BaAG2: could hydrolyze
BaAG2 [7]
  Km: 7.8 ± 1 mM
  Vmax ± SD: 52.2 ± 1.8 µmol/mg/min
  kcat ± SD: 59.1 ± 2.1 s⁻¹

## amylopectin
BaAG2 [9]; by 24 h
  glucose released: 0.1 g/L
BaAG2 [9]; by 72 h
  glucose released: 0.3 g/L
